Assay results published in publication doi:10.1101/2024.07.21.604522v1 (biorxiv, 2024).

Biological target: T1, human ChaC1 (ChaC1p) (Homo sapiens, UniProt Q9BUX1)
T1 sequence (Q9BUX1 1-222): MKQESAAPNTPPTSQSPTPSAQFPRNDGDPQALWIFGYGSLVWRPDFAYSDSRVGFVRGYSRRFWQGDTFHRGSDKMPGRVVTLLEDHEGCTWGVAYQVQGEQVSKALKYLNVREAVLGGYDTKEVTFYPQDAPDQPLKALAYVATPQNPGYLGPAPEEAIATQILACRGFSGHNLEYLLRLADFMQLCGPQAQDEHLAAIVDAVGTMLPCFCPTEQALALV
Experiment: ChaC1p-Dug1p coupled assay, cysteine by ninhydrin
Format: biochemical

O=C1C=CC(=O)c2c(O)cccc21 [juglone]
IC50: 8.7 µM
